Test results reported in PMC7956620 (Molecules, 2021).

Target: T1, human 5-HT3A receptor (Homo sapiens, UniProt P46098)
T1 construct: host or cells: Xenopus laevis oocytes injected with in vitro transcribed mRNA
T1 sequence (P46098 24-478): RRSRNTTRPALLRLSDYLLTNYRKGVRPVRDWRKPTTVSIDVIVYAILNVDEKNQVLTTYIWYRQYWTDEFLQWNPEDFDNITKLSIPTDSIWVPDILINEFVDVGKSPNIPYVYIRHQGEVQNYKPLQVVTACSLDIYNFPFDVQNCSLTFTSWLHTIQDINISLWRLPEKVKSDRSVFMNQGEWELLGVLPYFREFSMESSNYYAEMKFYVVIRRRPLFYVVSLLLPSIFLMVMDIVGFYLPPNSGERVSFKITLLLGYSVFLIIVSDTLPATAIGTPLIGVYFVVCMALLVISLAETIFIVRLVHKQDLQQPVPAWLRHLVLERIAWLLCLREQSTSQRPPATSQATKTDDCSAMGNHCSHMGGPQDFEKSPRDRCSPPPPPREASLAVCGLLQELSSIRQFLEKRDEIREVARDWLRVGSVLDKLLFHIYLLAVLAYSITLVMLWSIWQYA
Assay: cell-based
Format: cell-based
Protocol: Human 5-hydroxytryptamine (serotonin) receptor 3A cDNA (Genebank number: BC004453) was obtained from OriGene (Rockville, MD, USA). Figure 1A represents the chemical structure of two ergot alkaloids, EG and EC, obtained from Sigma-Aldrich (St. Louis, MO, USA). These ergot alkaloids were diluted in bath solution after dissolving in dimethyl sulfoxide (DMSO) for use as stock solutions. The final treatment concentration of DMSO was less than 0.01%. Xenopus laevis frogs were obtained from the Korean Xenopus Resource Center for Research (KXRCR000001, Chuncheon, Gangwondo, Korea), and other agents were purchased from Sigma-Aldrich.
To isolate oocytes, female Xenopus laevis were put into a container filled with ice and left for about one hour. When the blood vessels contracted and fell into a state similar to hibernation, the abdomen was incised, and the ovaries were removed and cut into small pieces in Ca^2+-free OR2 solution (82.5 mM NaCl, 2.5 mM KCl, 1 mM MgCl2, and 5 mM HEPES, pH 7.4) with 2 mg/mL collagenase. After a 2 h agitation to digest the follicle membranes, isolated oocytes in stages Ⅴ and Ⅵ were selected and washed repeatedly. The selected oocytes were maintained in ND96 incubation solution (96 mM NaCl, 2 mM KCl, 1.8 mM CaCl2, 1 mM MgCl2, 5 mM HEPES, 2.5 mM sodium pyruvate, and 50 µg/mL gentamycin, pH 7.4) at 16–18 °C. The solution containing the oocytes was changed twice a day and stored in a shaking incubator. Under the microscope, the end of a glass capillary was broken and fitted with a 20 µm diameter needle and filled with mineral oil, discharging air bubbles from the tip. When the Xenopus oocytes were ready for injection, 50 ng of mRNA was injected with a nanoliter injector (Drummond Scientific, Vernon Hills, IL, USA). The recording was started after two days of sufficient shaking incubation in ND96 solution. Surgery, microinjections, and the other handling of Xenopus laevis followed the standard protocols.
The oocytes in which mRNA was expressed during the incubation period allowed for the estimation of channel or receptor properties for observing drug and ligand potential interactions using a two-electrode voltage clamp (OC-725C; Warner Instruments, Hamden, CT, USA) and Digidata (1322A; Molecular Devices, Sunnyvale, CA, USA). The two-electrode voltage clamp had voltage and current electrodes that stably maintained the potential and delivered the transmembrane potential and high current. […] A computer transferred the converted output amplitude of the voltage clamp amplifiers to an input digital converter using pClamp 10 software (Axon Instruments, Union City, CA, USA). The voltage and current electrodes were filled with 3 M KCl (0.3–0.7 MΩ) and analyzed at a −80 mV holding potential. The oocytes were placed in the chamber and exposed to a ND96 solution at a flow rate of 2 mL per minute. In the electrophysiological experiments, the voltage ramp recording was performed at room temperature, and a current from −80 to +60 mV was applied to determine the current and voltage relationships. Inward peak traces of the 5-HT3A receptor and voltage ramp traces were converted to a value through Clampfit 9.0 (Molecular Devices, San Jose, CA, USA).
In the experiments, all data were represented as the mean ± SEM (standard error of the mean) of the 5-HT-stimulated inward peak in the 5-HT3A receptors. […] All curves plotted through the Hill equation were generated using Origin Pro 7.0 (OriginLab, Northampton, MA, USA). The significance of differences between the control and chanoclavine treatment was determined according to the p-value in the Student’s t-test. p-values of less than 0.05 were considered statistically significant.

Row | Structure (SMILES) | Imax of normalized 5-HT concentration-response current | inhibition at 100 µM (100 µM compound with 100 µM 5-HT, −80 mV, read-out: inhibition of I5-HT) | maximum inhibition (Imax) (Hill fit, co-application with 100 µM 5-HT, −80 mV) | effect of co-application with 5-HT on current (various concentrations with 100 µM 5-HT) | effect of compound alone (without 5-HT) (−80 mV holding potential, data not shown)
1 | NCCc1c[nH]c2ccc(O)cc12 [5-HT, 5-hydroxytryptamine, reference compound] | 99.1 ± 14.2 |  |  |  | 
2 | C[C@@H](CO)NC(=O)[C@@H]1C=C2c3cccc4[nH]cc(c34)C[C@H]2N(C)C1 [ergonovine, reference compound] |  | 1.1 ± 4.8% | 15 ± 5.7% | did not show any noticeable reduction | no change
